Experiments:
C57 Blk/6 mice [1] = test: Y-maze testing of spatial memory in aged mice cohort (non-cholestatic cognitive decline); format: in vivo
Text: FIG. 1 is an illustration of an aged mice cohort study plan.
FIG. 2 is a bar graph showing the results of Y-maze testing on aged mice treated with ursodeoxycholic acid (URSO), obeticholic acid (OCA), or control at 11 and 14 months, according to the cohort study plan in FIG. 1.
(§1) Cognitive impairment is a clinical issue with age-related cognitive decline being a substantial problem in society. C57 Blk/6 mice were aged to 9 months when they started either 6 months of Ursodeoxycholic acid or Obeticholic acid therapy or were left to age naturally to 15 months. Between 9 and 15 months of age mice develop progressive cognitive decline, by 15 months, with a novel arm time of one third indicating complete loss of short-term spatial memory (FIG. 2). Y-maze testing was repeated on the animals in each group at 11 and 14 months (FIG. 2; left bars and right bars respectively). […] The effect was not only behavioral.

[2] = preclinical data, given early in the disease course; cited from earlier work
C57 Blk/6 mice [3] = test: Immunofluorescence analysis of neurons and neural progenitors in aged mice; format: in vivo
Text: FIG. 3 is a bar graph showing immunofluorescence analysis of aged mice treated with obeticholic acid (OCA), ursodeoxycholic acid (URSO), or no supplement (wild type or WT) ad libitum each at 15 months (15 mnth) vs. 9 months (9 mnth), according to the cohort study plan in FIG. 1.
as §1

[4] = longer-term experiments, aged mice

For `CC[C@H]1[C@@H](O)[C@@H]2[C@H](CC[C@]3(C)[C@@H]([C@H](C)CCC(=O)O)CC[C@@H]23)[C@@]2(C)CC[C@@H](O)C[C@@H]12` [OCA, 3α,7α-dihydroxy-6α-ethyl-5β-cholan-24-oic acid], the “Y-maze spatial memory performance between ages 11 and 14 months” value (C57 Blk/6 mice [1]; aged C57 Blk/6 mice, therapy started at 9 months, Y-maze at 11 and 14 months) is listed as “significantly improved”, the “non-cholestatic (age-related) cognitive decline, loss of short-term spatial memory” value (C57 Blk/6 mice [1]; therapy given between 9 and 15 months of age in the diet) is listed as “completely abrogated” and the “cognitive dysfunction in cholestasis (e.g., PBC)” value [2] is listed as “reverse”. The “SOX2+ neural progenitor population” value (C57 Blk/6 mice [3]; compared to both aged matched groups, 15 months) was “significant increase”, the “NeuN+ neuron count, neuron loss between 9 and 15 months” value (C57 Blk/6 mice [3]; immunofluorescence, supplement from 9 to 15 months, fed ad lib) was “no significant neuron loss” and the neuronal precursors (C57 Blk/6 mice [3]; [4]) was “significant increase”. For the same compound, the “overall neuronal cell loss” value (C57 Blk/6 mice [3]; [4]) was “reversal”, the neurogenesis (C57 Blk/6 mice [3]; wild-type (WT) mice, FIG. 3) was “significantly increases” and the neuronal loss (C57 Blk/6 mice [3]; wild-type (WT) mice, FIG. 3) was “slows”.

— patent US20250375459A1, “METHODS FOR AMELIORATING COGNITIVE IMPAIRMENT USING BILE ACID DERIVATIVES” (INTERCEPT PHARMACEUTICALS, INC., priority 2022, published 2025)
